Where no end group is shown, it is not given here.
Assays:
[1] = tested on: EC (HUVEC) adhesion to peptide 12; settings: cited from earlier work
From the text: (§1) To dissect whether interaction of NRP‐1 with the transmembrane or the soluble isoform of VEGFR‐1 was required for EC adhesion to sVEGFR‐1, we performed EC adhesion assays by substituting sVEGFR‐1 with a different adhesion substrate, named peptide 12.

angiogenesis = settings: cited from earlier work
From the text: as §1

[2] = tested on: EC (HUVEC) adhesion to peptide 12; assay: Cell adhesion assay, EC adhesion to peptide 12; type: cell-based, human; settings: plates coated with 500 µg·mL^−1 peptide 12
Protocol: Human umbilical vein endothelial cells (HUVEC) were isolated from freshly delivered umbilical cords, as previously described, cultured in Endothelial Cell Growth Medium‐2 Kit from Clonetics (EGM‐2, CC4176, Lonza, Basel, Switzerland), and used up to passage 6. For functional assays, HUVEC were resuspended in Endothelial Basal Medium‐2 (EBM‐2, CC3156, Lonza). A pool of cells derived from four different individuals was used.
Solid support for adhesion assay was prepared by incubating immunological 96‐multiwell plates with 20 µg·mL^−1 VEGFR‐1/Fc chimera, or fibronectin solubilized in PBS. After 2 h, the coating solution was removed, and the well surface was blocked with 3% BSA in PBS for 18 h, before plating ECs in serum‐free medium at 3 × 10^4 cells per well. After incubation at 37 °C for 1 h, the wells were washed with PBS and attached cells were fixed with 3% formaldehyde and stained with 0.5% crystal violet. Attachment efficiency was determined by quantitative dye extraction and spectrophotometric measurement of the absorbance at 540 nm, using a Microplate reader 3550‐UV (Bio‐Rad). In competition experiments, peptides Flt2‐11, scrambled Flt2‐11, Flt2‐8 or Flt2‐5, at 20 µg·mL^−1, were added during the adhesion assay. Adhesion to peptide 12 was carried out by using maleic anhydride activated microplates (Reacti‐Bind, Pierce, Rockford, IL, USA) coated with 500 µg·mL^−1 of the peptide.

α5β1 integrin = tested on: α5β1 integrin; parameters: method as in 2 sources, one per row (each row's own in cited_ref): ref 34, 36 = [34]; PMID 18184864; doi:10.1182/blood-2007-03-077537; 34 Soro S , Orecchia A , Morbidelli L , Lacal PM , Morea V , Ballmer‐Hofer K , Ruffini F , Ziche M , D'Atri S , Zambruno G et al . ( 2008 ) A proangiogenic peptide derived from vascular endothelial gr || [36]; PMID 18682321; doi:10.1016/j.ejca.2008.06.032; 36 Lacal PM , Morea V , Ruffini F , Orecchia A , Dorio AS , Failla CM , Soro S , Tentori L , Zambruno G , Graziani G et al . ( 2008 ) Inhibition of endothelial cell migration and angiogenesis by a vas ||| ref 34 = [34]; PMID 18184864; doi:10.1182/blood-2007-03-077537; 34 Soro S , Orecchia A , Morbidelli L , Lacal PM , Morea V , Ballmer‐Hofer K , Ruffini F , Ziche M , D'Atri S , Zambruno G et al . ( 2008 ) A proangiogenic peptide derived from vascular endothelial gr; settings: cited from earlier work
[3] = tested on: α5β1 integrin signalling in ECs; assay: Signalling activated by EC adhesion; type: cell-based; settings: myristoylated alanine‐rich C‐kinase substrate up-regulation, Rac1 activation; data not shown
[4] = tested on: α5β1 integrin signalling in ECs; parameters: method as in PMID 24174428; settings: phosphorylation of focal adhesion kinase or Shc; cited from earlier work
NRP‐1 = assay: SPR, VEGFR‐1 binding to immobilized NRP‐1; parameters: species or system human; settings: NRP‐1 immobilized, VEGFR‐1 0.6-5 nM, 1:1 Langmuir model
Protocol: Fig. 2 Flt2‐11 peptide inhibits NRP‐1 binding to VEGFR‐1. SPR analysis of the interaction between VEGFR‐1 and NRP‐1 in peptide absence (A), or presence of Flt2‐11 peptide (B) or scrambled Flt2‐11 peptide (C). NRP‐1 is immobilized on the sensor chip. (A) VEGFR‐1 is injected at different concentrations (from bottom to top: 0.6 nM, cyan; 1 nM, red; 2 nM, green; 2.5 nM, blue; and 5 nM, black). […] (B) VEGFR‐1 is injected at 5 nM together with peptide Flt2‐11 at different concentrations (from top to bottom: 0, black; 5 nM, blue; 15 nM, green; 45 nM, red; 100 nM, cyan; and 800 nM, magenta). […] (C) VEGFR‐1 is injected at 5 nM together with ‘scrambled’ Flt2‐11 peptide at different concentrations (from top to bottom: 0, black; 0.5 μM, blue; 950 μM, geen; and […], red).
SPR experiments were carried out using a BIACORE X system (Biacore AB, Uppsala, Sweden). […] The reaction was carried out in 20 mM sodium acetate at pH 5.0, which is about 2 points below the theoretical NRP‐1 isoelectric point calculated using the program pI‐tool. […]
RU express the mass concentration‐dependent changes in the observed SPR signal, that is, the refractive index on the sensor chip surface. Changes in this signal are determined by the interaction between the immobilized protein (i.e., either NRP‐1 or VEGFR‐1) with the analyte protein (i.e., VEGFR‐1/Fc, α5β1 integrin or semaphorin 3A). […]

## peptide 12: seven amino acid‐long peptide that maps on the second VEGFR‐1 Ig‐like domain (residues 219–225) (NYLTHRQ; also: biotin, position not given here)
[1]
  support of EC adhesion by peptide 12: support EC adhesion
angiogenesis
  pro‐angiogenic stimulus: pro‐angiogenic stimulus
[2]
  EC adhesion to peptide 12 in the absence of NRP‐1: ECs adhere to peptide 12 in the absence of NRP‐1
α5β1 integrin
  binding to α5β1 integrin: able to directly bind α5β1 integrin
[3]
  signalling pathway activation by EC adhesion to peptide 12: also activated

B1: VEGFR‐1: Recombinant human VEGFR‐1/Fc (321‐FL‐050), R&D Systems (protein)
chain: SKLKDPELSLKGTQHIMQAGQTLHLQCRGEAAHKWSLPEMVSKESERLSITKSACGRNGKQFCSTLTLNTAQANHTGFYSCKYLAVPTSKKKETESAIYIFISDTGRPFVEMYSEIPEIIHMTEGRELVIPCRVTSPNITVTLKKFPLDTLIPDGKRIIWDSRKGFIISNATYKEIGLLTCEATVNGHLYKTNYLTHRQTNTIIDVQISTPRPVKLLRGHTLVLNCTATTPLNTRVQMTWSYPDEKNKRASVRRRIDQSNSHANIFYSVLTIDKMQNKDKGLYTCRVRSGPSFKSVNTSVHIYDKAFITVKHRKQQVLETVAGKRSYRLSMKVKAFPSPEVVWLKDGLPATEKSARYLTRGYSLIIKDVTEEDAGNYTILLSIKQSNVFKNLTATLIVNVKPQIYEKAVSSFPDPALYPLGSRQILTCTAYGIPQPTIKWFWHPCNHNHSEARCDFCSNNEESFILDADSNMGNRIESITQRMAIIEGKNKMASTLVVADSRISGIYICIASNKVGTVGRNISFYITDVPNGFHVNLEKMPTEGEDLKLSCTVNKFLYRDVTWILLRTVNNRTMHYSISKQKMAITKEHSITLNLTIMNVSLQDSGTYACRARNVYTGEEILQKKEITIRDQEAPYLLRNLSDHTVAISSSTTLDCHANGVPEPQITWFKNNHKIQQEPGIILGPGSSTLFIERVTEEDEGVYHCKATNQKGSVESSAYLTVQGTSDKSNLE
modifications: left off: Fc, end not stated, kept
notes: Recombinant human VEGFR‐1/Fc (321‐FL‐050), R&D Systems
[4]
  activation of canonical α5β1 integrin signalling by EC adhesion to sVEGFR‐1: does not activate canonical α5β1 integrin signalling
NRP‐1
  k off: 0.0003 s⁻¹
  k on: 12000 M⁻¹ s⁻¹

Reference: article PMC9290910, “Neuropilin‐1 is required for endothelial cell adhesion to soluble vascular endothelial growth factor receptor 1” (The Febs Journal, 2021)
